Source: patent US20210002209A1, “NOVEL CRYSTALLINE FORMS OF TAMIBAROTENE FOR TREATMENT OF CANCER” (TRANSGENEX NANOBIOTECH, INC., priority 2018, published 2021)
Read-outs that look alike come from different tables or passages of the source.

Assays:
Assay type in all cases: cell-based
[1] = test system: U-2 OS; experiment: IC50 studies, monolayer cell culture assay (CellTiter-Glo cell viability, 72 hours); settings: sarcoma
Experimental: (§1) Cancer cell lines listed in Table 1, were subjected for testing anti-cancer potency or the half maximal inhibitory concentration (IC50) of tamibarotene molecular complexes.
(§2) The SK-ES-1, U-2 OS, and SAOS-2 cells were cultured in a growth medium that is ATCC-formulated McCoy's 5a Medium Modified, Catalog No. 30-2007. The PC-3, PANC-1, SK-Mel-5, A549, H460, and H1299 were cultured in a growth medium that is ATCC-formulated Dulbecco's Modified Eagle's Medium (DMEM), Catalog No. 30-2002. The cells were seeded on 96-well microtiter plates with 3500 cells per well and cultured in an incubator (Model 3120, Thermo Scientific, USA) with a constant temperature at 37° C. and 5% carbon dioxide (CO2) gas for 24 hours.
(§3) The new tamibarotene molecular complexes were made into a series with concentration of 200 nM to 40 nM, 8 nM, 1.6 nM, 0.32 nM, and 0.064 nM. […]
(§4) The treated cells in the 96 well plate was then further cultured at the same conditions for 72 hours and then subjected for a final cell viability measurement. The measurement used a homogeneous method to determine the number of metabolically active cells presented in each of treatments. A testing reagent for the measurement is a mixture solution of the CellTiter-Glo® 2.0 reagent (CTG, Promega Cat #G9243, USA) and growth medium in 1:1 ratio in this respect.
(§5) The 96-well plate with the new molecular complex treated cells was taken out from incubator after the 72 hours of incubation, and the treatment solution in each well was removed using a multichannel pipette, and 100 μl of the testing reagent were added into each well. The plate was then placed on a plate shaker for 15 min. The plate was covered with a piece of aluminum foil to protect the CTG luminescence during the shaking time.
(§6) Then 90 μl of the 100 μl testing reagent were transferred into an opaque-walled 96-well plate for the CTG luminescence reading on a plate reader (SynergyH4 Hybrid Reader, Biotek, USA). The luminescence intensity of each treatment was positively correlated with the number of cells survived during the treatments.
(§7) All the treatment data was normalized by comparing with the control samples that had only growth medium without any molecular complexes. The half maximal inhibitory concentration (IC50) data was calculated using the nonlinear regression model and dose-responses (inhibition) curve built in the software. Each of treatments was performed in three replications each time and repeated three times for validation. The IC50 average […] (Avg) and standard deviation (STDV) were calculated based on the three replications.

[2] = test system: H460; experiment: as above; settings: H460, lung
Experimental: as §1, §2, §3, §4, §5, §6, §7

[3] = test system: H1299; experiment: as above; settings: H1299, lung
Experimental: as §1, §2, §3, §4, §5, §6, §7

[4] = test system: SK-ES-1; experiment: as above; settings: SK-ES-1, sarcoma
Experimental: as §1, §2, §3, §4, §5, §6, §7

[5] = test system: PC-3; experiment: as above; settings: PC-3, prostate
Experimental: as §1, §2, §3, §4, §5, §6, §7

[6] = test system: A549; experiment: as above; settings: A549, lung
Experimental: as §1, §2, §3, §4, §5, §6, §7

[7] = test system: SAOS; experiment: as above; settings: sarcoma
Experimental: as §1, §2, §3, §4, §5, §6, §7

[8] = test system: SK-Mel-5; experiment: as above; settings: SK-Mel-5, skin
Experimental: as §1, §2, §3, §4, §5, §6, §7

[9] = test system: sarcoma cell line SK-ES-1; experiment: Tumor sphere formation assay; settings: SK-ES-1 spheres, diameter over 50 μm, day 6
Source text: Cancer stem cells (CSCs) are defined as a small subset of cells within a tumor with the ability to self-renew and often drive tumor progression and recurrence after chemotherapy treatment (Zhou et al. (2015) “A Reliable Parameter to Standardize the Scoring of Stem Cell Spheres,” PLOS One 10(5); e0127348). It is important to study the responses of cancer stem cells or the tumors treated with the new molecular complexes. We have assessed CSC growth using tumor sphere formation assay, which involves culturing cancer cells in low attachment plates in serum free media. Sphere size and diameter was measured using ImageJ software and statistical analysis was performed using Graph Pad Prism Software. […]
On the day 6 of seeding, 10 μl of NucBlue Live Cell Stain ReadyProbes (Invitrogen Cat #R37605, USA) were added into each well for staining to visualize the live cells under the blue fluorescent light. […] Then the plate was brought to the Keyence imaging device (Keyence America, All-in-One Fluorescence Microscope BZ-X800, USA) for image scanning. […]
The sphere image area is calculated as a sum of image area of every individual sphere with diameter over 50 μm in each treatment well. […]
The sarcoma spheres were stained with NucBlue Live Cell Stain ReadyProbes (Invitrogen Cat #R37605) and imaged under 4× objective lens on Keyence imaging scanner (Keyence America, All-in-One Fluorescence Microscope BZ-X800).

[10] = Test I, read-out: IC50 Test(I) Avg
[11] = Test II, read-out: IC50 Test (II) Avg
[12] = Test III, read-out: IC50 Test (III) Avg

CC1(C)CCC(C)(C)c2cc(NC(=O)c3ccc(C(=O)O)cc3)ccc21.O=C(O)c1cc(O)c(O)c(O)c1 [TAM-gallic acid]
IC50 [1, 10]: 16.4 µM | IC50 [1, 11]: 13 µM | IC50 [1, 12]: 10.6 µM | IC50 [2, 10]: 42 µM | IC50 [2, 11]: 41.9 µM | IC50 [2, 12]: 41.3 µM | IC50 [3, 10]: 11.2 µM | IC50 [3, 11]: 24.8 µM | IC50 [3, 12]: 11.7 µM | IC50 [4, 10]: 10.1 µM | IC50 [4, 11]: 5.94 µM | IC50 [4, 12]: 6.76 µM | IC50 [5, 10]: 81 µM | IC50 [5, 11]: 90.3 µM | IC50 [5, 12]: 108 µM | IC50 [6, 10]: 39.9 µM | IC50 [6, 11]: 43.3 µM | IC50 [6, 12]: 39.9 µM | IC50 [7, 10]: 11.6 µM | IC50 [7, 11]: 9.98 µM | IC50 [7, 12]: 14.9 µM | IC50 [8, 10]: 47.5 µM | IC50 [8, 11]: 64.2 µM | IC50 [8, 12]: 88.5 µM | tumor spheres size compared with the parent molecule [9]: reduced tumor spheres size
